Patent publication US8324166B2, “Neuroprotection using NAP-like and SAL-like peptide mimetics” (Ramot at Tel-Aviv University, Ltd., priority 2007, dated 2012)
“And” between values parts separate entries of the source, which are not always exact repeats. Equal entries are not always repeated. Ends that are not written are not given here.

Legend:
[1] = system: neurons of the central nervous system; settings: in vitro assays and in vivo disease models; cited from earlier work
[2] = system: cerebral cortical astrocytes intoxicated with ZnCl2; assay: MTS assay: survival of astrocytes following intoxication with ZnCl2; assay type: cell-based, mice
Method: Cell cultures were prepared as previously described (McCarthy KD, de Vellis J., J. Cell Biol., 85:890-902 (1980); Gozes I et al., J. Pharmacol. Exp. Ther., 257:959-66 (1991)). Newborn mice (Harlan Biotech Israel Ltd., Rehovot, Israel) were sacrificed by decapitation and the brain was removed. The cortex was dissected and meninges were removed. The tissue was minced with scissors and placed in Hank's balanced salts solution X1 (HBSS, Biological Industries, Beit Haemek, Israel), 15 mM HEPES Buffer pH 7.3 (Biological Industries, Beit Haemek, Israel) and 0.25% trypsin (Biological Industries, Beit Haemek, Israel) in an incubator at 37° C. 10% CO2 for 20 minutes. The cells were then placed in 8 ml of solution D1 containing 10% heat inactivated fetal calf serum (Biological Industries, Beit Haemek, Israel), 0.1% gentamycin sulphate solution (Biological Industries, Beit Haemek, Israel) and 0.1% penicillin-streptomycin-nystatin solution (Biological Industries, Beit Haemek, Israel) in Dulbecco's modified Eagle's medium (DMEM, Sigma, Rehovot, Israel). The cells were allowed to settle, and were then transferred to a new tube containing 2.5 ml of D1 and triturated using a Pasteur pipette. The process was repeated twice more. Once all the cells were suspended, cell density was determined using a hemocytometer (Neubauer improved, Germany) and 1×10^6 cells/15 ml D1 were inoculated into each 75 cm^2 flask (Corning, Corning, N.Y., USA). Cells were incubated at 37° C. 10% CO2. The medium was changed after 24 hours and cells were grown until confluent (one week).
The flasks containing the cerebral cortical astrocytes were shaken to dislodge residual neurons and oligodendrocytes that may be present. Flasks were then washed with 10 ml cold HBSSx1, HEPES15 mM. 5 ml versene-trypsin solution (BioLab, Jerusalem, Israel) was added to each flask and the flasks were incubated at room temperature for 5 minutes to remove astrocytes. The flasks were then shaken to dislodge the cells. The versene-trypsin solution was neutralized with 5 ml D1. The cell suspension was collected and centrifuged at 100 g for 10 minutes. The supernatant was removed and the cells resuspended in D1. The cells were plated in 96 well plates (Corning, Corning, N.Y., USA) (each flask to 2 plates) and incubated until confluent at 37° C. 10% CO2.
The survival of astrocytes following intoxication with ZnCl2 was tested using the MTS assay. One week after sub-culturing the astrocytes into 96-well plates, the astrocyte growth medium was aspirated and fresh medium containing 200μM ZnCl2 and ascending concentrations of NATLSHIHQ (SEQ ID NO:4) or STPTAIPQ (SEQ ID NO:6)(concentration range: 10^−16-10^−7M) was added to the cells. The cells were incubated for 4 hours in 10% CO2 at 37°C., followed by an MTS assay using Celltiter 96 Aqueous non-radioactive cell proliferation assay (Promega, Madison, WI, USA) which was performed according to the manufacturer's instructions and read in an ELISA plate reader at 490nm.

[3] = system: neurons in mixed neuroglial cultures intoxicated with beta-amyloid 1-42; assay: MAP2 assay: neuronal survival in mixed neuroglial cultures following beta-amyloid intoxication; assay type: cell-based, rat
Method: Newborn rats were used to prepare cerebral cortical astrocytes cell cultures as described above. After suspending the cells in D1, they were centrifuged at 100 g for 5 minutes and the supernatant discarded. The cell pellet was resuspended in solution D2 containing 5% heat inactivated horse serum (Biological Industries, Beit Haemek, Israel), 0.1% gentamycin, 0.1% penicillin-streptomycin-nystatin, 1% N3 (defined medium components essential for neuronal development in culture, (Romijn HJ, Brain Res., 254:583-9 (1981)]), 15 μg/ml 5′-fluoro-2-deoxyuridine (FUDR, Sigma, Rehovot, Israel), and 3 μg/ml uridine (Sigma, Rehovot, Israel) in DMEM. Cells were counted in a hemocytometer, diluted in D2 and 17,000 cells/well/96 well plate were seeded on 8-day-old astrocytes prepared as described above. The medium was changed the next day to D2 without FUDR and uridine. Cells were allowed to grow for one week at 37° C. 10% CO2 before experiments were performed.
Neuronal survival in neuroglial cultures following beta-amyloid intoxication was assayed using the neuron specific antibody, MAP2. […] The cells were incubated for 5 days in 10% CO2 at 37°C.
5 days after the addition of beta-amyloid and the peptide, the cells were fixed by removing the media from each well and the addition of cold methanol. The cells were left in the refrigerator overnight. The cells were immunostained with anti-MAP2 as previously described (Brooke S M et al., Neurosci. Lett., 267:21-4(1999)): the methanol was removed and the cells were washed 4 times with phosphate buffered saline (PBS). Blocking for non-specific antibody binding was performed by incubating the cells in 5% non-fat milk in PBS overnight at 4° C. The blocking solution was then removed and anti-MAP2(1:1000; Sigma, Rehovot, Israel) was added to each well. The cells were incubated for 30 minutes at room temperature, followed by 4 washes with PBS. Biotinylated anti-mouse IgG (1:200, Vector Laboratories, Burlingame, Calif., USA) was then added to each well, and the cells were incubated for 30 minutes at room temperature followed by 4 washes with PBS. The cells were incubated at room temperature for 30 minutes with the ABC reagent (Vector Laboratories, Burlingame, Calif., USA) prepared according to the manufacturer's protocol and then washed 4 times with PBS. ABTS reagent, prepared according to the manufacturer's protocol (Vector Laboratories, Burlingame, Calif., USA) was then added to each well and the cells were incubated for 20 minutes in the dark at room temperature. The plates were read in an ELISA plate reader at 405nm. As blanks, wells containing untreated cells and no primary antibody were used.

[4] = system: closed head injury in mice; settings: cited from earlier work
[5] = system: model of fetal alcohol syndrome; settings: in vivo, ip; cited from earlier work
[6] = system: normal aging rats; settings: intranasal administration; cited from earlier work
[7] = system: cell cultures exposed to a wide variety of toxins; settings: against a wide variety of toxins; cited from earlier work
[8] = system: ischemic injury; settings: after ischemic injury; cited from earlier work
[9] = in vivo; cited from earlier work
[10] = biological target: beta III tubulin (Homo sapiens, UniProt Q13509); settings: affinity chromatography; cited from earlier work
beta III tubulin, sequence (Q13509 whole entry): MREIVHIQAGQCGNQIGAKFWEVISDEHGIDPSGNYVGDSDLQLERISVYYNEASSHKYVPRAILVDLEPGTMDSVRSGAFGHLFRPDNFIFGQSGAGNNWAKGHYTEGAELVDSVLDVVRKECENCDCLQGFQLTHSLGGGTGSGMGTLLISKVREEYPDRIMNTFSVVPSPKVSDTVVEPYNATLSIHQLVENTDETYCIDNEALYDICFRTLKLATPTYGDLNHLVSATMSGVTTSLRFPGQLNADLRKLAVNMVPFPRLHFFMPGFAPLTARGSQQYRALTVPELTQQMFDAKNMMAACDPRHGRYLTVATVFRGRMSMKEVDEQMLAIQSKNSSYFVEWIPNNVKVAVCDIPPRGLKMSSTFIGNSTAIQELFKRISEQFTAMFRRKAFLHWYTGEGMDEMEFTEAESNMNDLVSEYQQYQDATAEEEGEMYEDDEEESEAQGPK
beta III tubulin, sequence (Q71U36 whole entry partner): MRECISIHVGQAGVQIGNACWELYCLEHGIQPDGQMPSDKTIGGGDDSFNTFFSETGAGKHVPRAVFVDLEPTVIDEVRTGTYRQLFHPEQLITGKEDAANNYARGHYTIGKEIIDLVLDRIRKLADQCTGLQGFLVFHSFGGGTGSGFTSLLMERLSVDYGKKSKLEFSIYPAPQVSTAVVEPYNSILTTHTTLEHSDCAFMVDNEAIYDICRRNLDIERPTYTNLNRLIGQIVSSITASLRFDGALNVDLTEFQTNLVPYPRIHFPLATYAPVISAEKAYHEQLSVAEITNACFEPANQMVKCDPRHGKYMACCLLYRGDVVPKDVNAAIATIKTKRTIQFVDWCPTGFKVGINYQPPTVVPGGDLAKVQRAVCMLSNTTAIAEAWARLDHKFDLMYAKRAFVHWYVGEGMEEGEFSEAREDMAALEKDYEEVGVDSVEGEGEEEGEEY

[11] = system: animal models simulating parts of the Alzheimer's disease pathology; settings: in vivo; cited from earlier work

For SALLRSIPA, the “neuron survival in response to various insults” value [1] is given as “keep neurons of the central nervous system alive”.

With STPTAIPQ (synthetic NAP-like peptide) the “effective concentrations on astrocyte survival: Astrocytes (200 μM ZnCl2)” value ([2]; MTS assay, 4 hours, tested 10^−16-10^−7M, significance vs negative control in cell) was 10^−7 (p < 0.05) M, the “activity in neuroprotection assay” value ([2]; astrocytes, ZnCl2) was “active” and the “effective concentrations on neuronal survival: Neurons (25 μM beta-amyloid)” value ([3]; MAP2 assay, 5 days, tested 10^−19M to 10^−5M, significance vs negative control in cell) was 10^−13 M and 10 ^−5 M. The “activity in neuroprotection assay” value ([3]; neuroglial cells, beta-amyloid) was “active”.

For Asn-Ala-Pro-Val-Ser-Ile-Pro-Gln [NAP], the “damage caused by closed head injury” value [4] is given as “reducing damage”, the “fetal death after intraperitoneal injection of alcohol” value [5] is given as “inhibited” and the “performance in the Morris water maze” value [6] is given as “improved performance”. The “neuroprotective activity in cell cultures” value [7] was “neuroprotective activity at femtomolar concentrations”, the “infarct volume and motor function deficits” value [8] was “reduced infarct volume and motor function deficits” and the “crossing of the blood-brain barrier” value [9] was “can cross the blood-brain barrier”. For the same substance, the interaction with tubulin [10] was “specifically interact with beta III tubulin” and the “protection in Alzheimer's disease models” value [11] was “protective”.
